Assay results from ChEMBL document CHEMBL4033679, “Medicinal chemistry of antischistosomal drugs: Praziquantel and oxamniquine” (Bioorg Med Chem, 2017).

What was measured:
Schistosoma japonicum [1] = test: Antiparasitic activity against Schistosoma japonicum cercariae isolate Anhui infected in ICR mouse assessed as overall reduction rate at 100 to 400 mg/kg, po administered as single dose for 5 consecutive days measured on day 21 post dose by scanning electron microscopic method; assay type: functional; set-up: scale not given: the % may be the effect or the level left
[2] = Cytotoxicity against human HeLa cells assessed as cell survival at 40 uM after 24 hrs by MTT assay relative to control; assay type: cell-based; details: read-out: Survival
Schistosoma japonicum [3] = test: Antiparasitic activity against Schistosoma japonicum derived from infected C57BL/6 mouse assessed as parasite killing at 10 uM incubated for 30 to 60 mins measured up to 72 hrs by inverted microscopic method relative to control; assay type: functional
Schistosoma mansoni [4] = test: Antiparasitic activity against Schistosoma mansoni in patient assessed as reduction in eggs per gram of rectal mucosa at 10 mg/kg/day bid measured up to day 180 post dose relative to control; assay type: functional; set-up: scale not given: the % may be the effect or the level left
Schistosoma mansoni [5] = test: Antiparasitic activity against Schistosoma mansoni in patient assessed as cure rate by measuring reduction in eggs in stool at 10 mg/kg/day bid measured up to day 180 post dose relative to control; assay type: functional; set-up: scale not given: the % may be the effect or the level left
[6] = Drug excretion in human urine at 15 mg/kg, po; assay type: ADME, organism-based; details: read-out: Drug excretion
[7] = Cmax in human at 15 mg/kg, po; assay type: ADME, organism-based; set-up: dose 15 mg/kg, route oral; details: in vivo
[8] = Elimination half life in human at 15 mg/kg, po; assay type: ADME, organism-based; details: in vivo, read-out: beta t1/2
[9] = Protein binding in plasma (unknown origin); assay type: ADME, cell-free
Schistosoma mansoni [10] = test: In vivo antiparasitic activity against Schistosoma mansoni assessed as cure rate at 40 to 60 mg/kg relative to control; assay type: functional
Plasma = test: Drug level in human plasma after 1 to 2 hrs; assay type: ADME, cell-free
[11] = Cmax in human after 1 to 2 hrs; assay type: ADME
albumin = albumin (Homo sapiens, UniProt P02768); test: Binding affinity to albumin (unknown origin); assay type: ADME; details: read-out: PB
Schistosoma mansoni [12] = test: Antiparasitic activity against Schistosoma mansoni in patient assessed as cure rate by measuring reduction in eggs in stool at 60 mg/kg/day for 3 consecutive days measured up to day 180 post dose relative to control; assay type: functional; set-up: scale not given: the % may be the effect or the level left
Schistosoma mansoni [13] = test: Antiparasitic activity against Schistosoma mansoni in patient assessed as reduction in eggs per gram of rectal mucosa at 60 mg/kg/day for 3 consecutive days measured up to day 180 post dose relative to control; assay type: functional; set-up: scale not given: the % may be the effect or the level left
[14] = Fraction absorbed in po dosed rat; assay type: ADME, organism-based; details: in vivo, read-out: Fabs
[15] = Fraction absorbed in po dosed monkey; assay type: ADME, organism-based, Macaca mulatta; details: rhesus monkey, in vivo, read-out: Fabs
[16] = Antiparasitic activity against Schistosoma in intestinal schistosomiasis patient assessed as cure rate at 40 mg/kg; assay type: functional
[17] = Protein binding in plasma (unknown origin) relative to control; assay type: ADME, cell-free; details: read-out: PPB
[18] = Tmax in human; assay type: ADME
[19] = Fraction absorbed in po dosed human; assay type: ADME, organism-based; details: in vivo, read-out: Fabs
[20] = Apparent permeability in human Caco2 cells; assay type: ADME, cell-based; details: Caco-2
[21] = Fraction absorbed in po dosed dog; assay type: ADME, organism-based, Canis lupus familiaris; details: in vivo, read-out: Fabs
[22] = Drug excretion in human urine up to 4 days; assay type: ADME; details: read-out: Drug excretion
Schistosoma mansoni [23] = test: In vivo antiparasitic activity against Schistosoma mansoni assessed as reduction in egg count in […] at 40 to 60 mg/kg relative to control; assay type: functional; set-up: scale not given: the % may be the effect or the level left
[24] = Half life in human; assay type: ADME

Chain of albumin (P02768 whole entry): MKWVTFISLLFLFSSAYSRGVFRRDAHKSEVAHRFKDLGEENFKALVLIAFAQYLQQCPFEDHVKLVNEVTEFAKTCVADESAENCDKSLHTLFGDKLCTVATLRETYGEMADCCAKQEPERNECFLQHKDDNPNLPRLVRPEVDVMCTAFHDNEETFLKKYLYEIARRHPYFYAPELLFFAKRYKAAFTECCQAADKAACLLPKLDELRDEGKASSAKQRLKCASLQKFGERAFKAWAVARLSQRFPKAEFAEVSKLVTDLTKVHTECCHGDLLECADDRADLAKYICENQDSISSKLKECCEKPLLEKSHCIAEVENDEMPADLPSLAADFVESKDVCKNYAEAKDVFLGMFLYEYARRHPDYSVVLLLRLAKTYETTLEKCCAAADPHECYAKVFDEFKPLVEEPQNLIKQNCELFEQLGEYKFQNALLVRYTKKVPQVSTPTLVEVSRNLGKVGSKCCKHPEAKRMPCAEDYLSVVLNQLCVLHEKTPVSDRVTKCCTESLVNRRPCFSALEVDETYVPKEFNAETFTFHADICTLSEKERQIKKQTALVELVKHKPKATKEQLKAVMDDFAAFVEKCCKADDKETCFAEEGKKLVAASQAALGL

C[C@H]1[C@@H](OC(=O)CCC(=O)Oc2ccc3c(c2)C2CN(C(=O)C4CCCCC4)CC(=O)N2CC3)O[C@@H]2O[C@@]3(C)CC[C@H]4[C@H](C)CC[C@@H]1[C@@]24OO3 (stereo partly drawn)
Activity (Schistosoma japonicum [1]): 60%

O=C(C1CCCCC1)N1CC(=O)N2CCc3ccc([N+](=O)[O-])cc3C2C1 (stereo not drawn)
viability at 24 h, 40 µM [2]: > 85%

Nc1ccc2c(c1)C1CN(C(=O)C3CCCCC3)CC(=O)N1CC2 (stereo not drawn)
viability at 24 h, 40 µM [2]: > 85%

O=C(CCCCCN1C(=O)c2cccc3c(C4CCOCC4)ccc(c23)C1=O)Nc1ccc2c(c1)C1CN(C(=O)C3CCCCC3)CC(=O)N1CC2 (stereo not drawn)
viability at 24 h, 40 µM [2]: > 85%

O=C(CCl)N1CC(=O)N2CCc3sccc3C2C1 (stereo not drawn)
Activity (Schistosoma japonicum [3]): 100%

CC(C)NCC1CCc2cc(CO)c([N+](=O)[O-])cc2N1 (stereo not drawn) [OXAMNIQUINE]
Activity (Schistosoma mansoni [4]): 42.4% | Activity (Schistosoma mansoni [5]): 90.3% | dose excreted [6]: 0.4 to 1.9% | Cmax [7]: 1000 to 4000 ng/mL | half-life [8]: 1.5 to 2 h

O=C(C1CCCCC1)N1CC(=O)N2CCc3ccccc3C2C1 (stereo not drawn) [PRAZIQUANTEL]
PPB [9]: 0.19 to 3 mg/mL | Activity (Schistosoma mansoni [10]): 60 - 90% | Drug uptake (Plasma): 5 to 7 %ID | Cmax [11]: 1000 ng/mL | fraction unbound (albumin): 0.19 to 0.22 | Activity (Schistosoma mansoni [12]): 100% | Activity (Schistosoma mansoni [13]): 96.1% | Fa [14]: 75 to 100% | Fa [15]: 75 to 100% | Activity [16]: 18 - 39% | fraction unbound [17]: 0.195 to 0.21 | Tmax [18]: 3 to 4 h | Fa [19]: 75 to 100% | Papp [20]: 44 ×10⁻⁶ cm/s | Fa [21]: 75 to 100% | dose excreted at 96 h [22]: 80% | Activity (Schistosoma mansoni [23]): 90 - 95% | half-life [24]: 1.5 h
